Data set [1] deals with T1, GnRH receptor (Homo sapiens, UniProt P30968).
T1 sequence (P30968 1-328): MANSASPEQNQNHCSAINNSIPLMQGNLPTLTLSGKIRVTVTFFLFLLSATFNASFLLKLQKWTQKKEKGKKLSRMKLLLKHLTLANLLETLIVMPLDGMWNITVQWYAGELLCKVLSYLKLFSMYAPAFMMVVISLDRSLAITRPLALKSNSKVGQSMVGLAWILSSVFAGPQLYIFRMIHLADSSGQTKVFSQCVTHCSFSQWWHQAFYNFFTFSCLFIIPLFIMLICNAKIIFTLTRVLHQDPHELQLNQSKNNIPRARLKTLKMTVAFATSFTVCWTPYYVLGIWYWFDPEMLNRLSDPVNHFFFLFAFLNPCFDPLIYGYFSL
In words: GnRH receptor membrane binding assay ([125I]-D-Trp6-LHRH competition). Details: purchased Perkin Elmer; host or cells: CHO-K1 (stably transfected), membrane preparation. As for the experimental part: A membrane Target system (Perkin Elmer), isolated from CHO-K1 cells stably transfected with a GnRH receptor, was employed. […] After incubation at 27° C. for 1 hr, the reaction mix was transferred to a filter (Fitermat A, PerkinElmer) using a vacuum pump and the reaction was terminated by washing many times with 50 mM tris-HCl buffer. The radioactivity on the filter was measured using Microbeta2 trilux (PerkinElmer). The competitors were analyzed for binding inhibition rate (%) on the basis of the measured radioactivity and calculated for IC50 values using a nonlinear least square regression method with Prism (GraphPad, Inc.).

Data set [2] deals with T1, GnRH receptor. Kind of data set: GnRH-R reporter assay (NFAT promoter luciferase, leuprolide acetate as ligand). The class given is cell-based. The procedure: A double-transformed cell line (HEK293 transformed with pcDNA3.1/GnRH receptor and pGL4/NFAT promoter) was employed. To conduct a GnRH-R reporter assay, the double-transformed cell line was diluted at a density of 3×10^4 cells/well in a medium (DMEM, 10% FBS, 1% Penicillin-Streptomycin), plated into polylysine-coated white-clear bottom 96-well plates and incubated for 24 hrs. After the medium was changed with a serum-free medium (DMEM, 1% Penicillin-Streptomycin), the cells were incubated for an additional 12 hrs before reaction. The cells were incubated for 1 hr with a GnRH antagonist to be tested and then for an additional 6 hrs with a ligand (leuprolide acetate, Sigma), followed by reaction with a Luciferase assay system (Promega, Cat. No. E1500).
Each sample was analyzed at a 6-dose level to obtain the binding inhibitory rates (%) of the competitors on the basis of the measured luminescence. IC50 values were calculated using a nonlinear least square regression method with Prism (GraphPad, Inc.).
On the technique in general: Reporter assays use an easily measured gene product as a stand-in for the process of interest.

Data set [3] can be described thus: Assay for oral absorptivity (plasma drug level after oral administration). The conditions noted are these: male, rat, SD rats; for Cmax: 40 umol/kg, oral, plasma; for AUC(0-t): 40 μmol/kg, plasma drug level after oral administration, read-out: AUC8 hr. The class given is in vivo. As for the experimental part: 1) Preparation of Specimen for Measuring Drug Level upon Oral Administration
For use as experimental animals, SD rats (Charles River Japan, male, 8 weeks old, 220-270 g) was starved overnight. Test compounds (25˜30 mg) were dissolved in polyethyleneglycol 400 (PEG400) 20%, and a 0.5% carboxy methyl cellulose (CMC) solution 80% to produce solutions of 4 μmmol/mL. The rats were weighed. The test compounds were orally administered at a dose of 40 μmol/kg (ca. 25˜30 mg/kg) to the rats using a sonde and a 3 mL syringe. Blood samples were taken 20, 40, 60, 120, 240, and 360 min after the oral administration. Plasmas separated from the blood samples by centrifugation were used as specimens.
2) Measurement of Drug Level
0.09 mL of methanol was added to 0.03 mL of the plasma obtained in 1), followed by vortexing to precipitate and remove proteins. 0.005 mL of the supernatant was injected to LC/MS/MS.
Apparatus: Shiseido Nanospace SI-2
Column: Shiseido capcelpack C18, MG3, 5 um, 2.0 mm I.D×50 mm
Mobile Phase: a mixture of 3:7 10 mM ammonium formate (pH 4.0): acetonitrile.

Where [4] appears, read: membrane from CHO-K1 cells stably transfected with GnRH receptor, 0.2 nM [125I]-D-Trp6-LHRH, Table 26 lists compounds with IC50 of less than 100 nM, read-out: IC50 as measured by the GnRH receptor membrane binding assay.

Structures are written as SMILES. pIC50: −log10 of the molar value.

Broadly, the pIC50 is the negative decadic logarithm of the IC50, by convention in mol/L. For the compound `Cc1ccc(CN2CCN(c3c(C)n(Cc4c(F)cccc4F)c(=O)n(C[C@H](N)c4ccccc4)c3=O)CC2)c(C)c1` [Compound 4-4], in data set [1] (setting [4]), the pIC50 is more than 7.00.

Take `Cc1c(N2CCN(Cc3ccc(C(F)(F)F)o3)CC2)c(=O)n(C[C@H](NCCCCC(=O)O)c2ccccc2)c(=O)n1Cc1c(F)cccc1C(F)(F)F` [Compound 11-8]: in data set [1] (setting [4]), the pIC50 was more than 7.00. With `CCOP(=O)(O)CCCN[C@@H](Cn1c(=O)c(N2CCN(Cc3ccc(C(F)(F)F)o3)CC2)c(C)n(Cc2c(F)cccc2C(F)(F)F)c1=O)c1ccccc1` [Compound 11-10], the negative logarithm of the IC50 (pIC50) in data set [1] (setting [4]) is more than 7.00. Same read-out and setting: under `Cc1c(N2CCN(Cc3ccc(C(F)(F)F)o3)C(CO)C2)c(=O)n(C[C@H](N)c2ccccc2)c(=O)n1Cc1c(F)cccc1C(F)(F)F` (stereo partly drawn) [Compound 22, 3-((R)-2-amino-2-phenyl-ethyl)-1-(2-fluoro-6-trifluoromethyl-benzyl)-5-[3-hydroxymethyl-4-(5-trifluoromethyl-furan-2-ylmethyl)-piperazin-1-yl]-6-methyl-1H-pyrimidine-2,4-dione] stands more than 7.00.

In data set [1], `Cc1c(N2CCN(Cc3ccc(O)cc3)CC2)c(=O)n(C[C@H](N)c2ccccc2)c(=O)n1Cc1c(F)cccc1F` [Compound 3-31] had a negative logarithm of the IC50 (pIC50) of more than 7.00. As for `Cc1cc(C)c(CN2CCN(c3c(C)n(Cc4c(F)cccc4F)c(=O)n(C[C@H](N)c4ccccc4)c3=O)CC2)c(C)c1` [Compound 3-32], the negative-log IC50 (pIC50) in data set [1] (setting [4]) is more than 7.00. As for `Cc1c(N2CCN(Cc3cccc(C(F)(F)F)c3F)CC2)c(=O)n(C[C@H](N)c2ccccc2)c(=O)n1Cc1c(F)cccc1F` [Compound 3-50], the negative-log IC50 (pIC50) in data set [1] is more than 7.00. `Cc1c(N2CCN(Cc3ccc(C(F)(F)F)o3)CC2)c(=O)n(C[C@H](NCCC(O)C(=O)O)c2ccccc2)c(=O)n1Cc1c(F)cccc1C(F)(F)F` (stereo partly drawn) [Compound 21, 4-((R)-2-{3-(2-fluoro-6-trifluoromethyl-benzyl)-4-methyl-2,6-dioxo-5-[4-(5-trifluoromethyl-furan-2-ylmethyl)-piperazin-1-yl]-3,6-dihydro-2H-pyrimidin-1-yl}-1-phenyl-ethylamino)-2-hydroxy-butyric acid]: the pIC50 in data set [1] (setting [4]) is more than 7.00.

In the case of `COC(=O)CNC(=O)c1cccc(CN2CCN(c3c(C)n(Cc4c(F)cccc4C(F)(F)F)c(=O)n(C[C@H](N)c4ccccc4)c3=O)CC2)c1` [Compound 10-1], the negative-log IC50 (pIC50) in data set [1] (setting [4]) is more than 7.00. Still for that read-out and setting: under `Cc1c(N2CCC(C)CC2)c(=O)n(C[C@H](N)c2ccccc2)c(=O)n1Cc1c(F)cccc1F` [Compound 1-16] stands more than 7.00.

What is called Cmax is the peak of the concentration-time curve. Consider `Cc1cc(F)cc([C@H](Cn2c(=O)c(N3CCN(Cc4ccc(C(F)(F)F)o4)CC3)c(C)n(Cc3c(F)cccc3C(F)(F)F)c2=O)NCCCC(=O)O)c1` [Compound 11-4], for which the negative-log IC50 (pIC50) in data set [2] (HEK293 transformed with pcDNA3.1/GnRH receptor and pGL4/NFAT promoter, luciferase, read-out: IC50 Value) is 8.31. Besides, in data set [3], the Cmax is 4.14 µg/mL and the AUC(0-t) is 19.6 µg·h/mL. Turning to `Cc1c(N2CCN(Cc3ccc(C(F)(F)F)o3)CC2)c(=O)n(C[C@H](O)c2ccccc2)c(=O)n1Cc1c(F)cccc1C(F)(F)F` [Compound 20, 1-(2-fluoro-6-trifluoromethyl-benzyl)-3-((R)-2-hydroxy-2-phenyl-ethyl)-6-methyl-5-[4-(5-trifluoromethyl-furan-2-ylmethyl)-piperazin-1-yl]-1H-pyrimidine-2,4-dione], the negative-log IC50 (pIC50) in data set [1] (setting [4]) was more than 7.00. For `Cc1c(N2CCN(Cc3cccc(C(F)(F)F)c3)CC2)c(=O)n(C[C@H](N)c2ccccc2)c(=O)n1Cc1c(F)cccc1F` [Compound 3-47], in data set [1], the pIC50 was more than 7.00.

As to `Cc1cccc(CN2CCN(c3c(C)n(Cc4c(F)cccc4F)c(=O)n(C[C@H](N)c4ccccc4)c3=O)CC2)c1O` [Compound 4-9], the pIC50 in data set [1] (setting [4]) is more than 7.00.

Turning to `Cc1c(N2CCN(Cc3ccc4c(c3)OCO4)CC2)c(=O)n(C[C@H](N)c2ccccc2)c(=O)n1Cc1c(F)cccc1F` [Compound 1-13], the negative logarithm of the IC50 (pIC50) in data set [1] (setting [4]) was more than 7.00.

For `Cc1cccc(C)c1CN1CCN(c2c(C)n(Cc3c(F)cccc3F)c(=O)n(C[C@H](N)c3ccccc3)c2=O)CC1` [Compound 4-6], the pIC50 in data set [1] (setting [4]) is more than 7.00. Take `Cc1c(N2CCN(Cc3cccc(C(F)(F)F)c3)CC2)c(=O)n(C[C@H](NCCCC(=O)O)c2ccccc2)c(=O)n1Cc1c(F)cccc1C(F)(F)F` [Compound 11-2]: the negative logarithm of the IC50 (pIC50) in data set [2] is 8.00. Further, in data set [3], the highest level (Cmax) was 5.1 µg/mL and the AUC(0-t) was 29.4 µg·h/mL. On to `Cc1c(N2CCN(Cc3ccc(OC(F)(F)F)cc3)CC2)c(=O)n(C[C@H](N)c2ccccc2)c(=O)n1Cc1c(F)cccc1F` [Compound 3-49], for which, in data set [1] (setting [4]), the pIC50 is more than 7.00. On to `Cc1c(N2CCCC(C)C2)c(=O)n(C[C@H](N)c2ccccc2)c(=O)n1Cc1c(F)cccc1F` (stereo partly drawn) [Compound 1-18], for which the pIC50 in data set [1] is more than 7.00. On to `CSc1ccc(CN2CCN(c3c(C)n(Cc4c(F)cccc4F)c(=O)n(C[C@H](N)c4ccccc4)c3=O)CC2)cc1` [Compound 3-29], for which the negative logarithm of the IC50 (pIC50) in data set [1] (setting [4]) was more than 7.00. On the same count and under the same terms, under `Cc1c(N2CCN(Cc3ccc(F)c(C(F)(F)F)c3)CC2)c(=O)n(C[C@H](N)c2ccccc2)c(=O)n1Cc1c(F)cccc1F` [Compound 3-52] stands more than 7.00; under `Cc1c(N2CCN(Cc3cccnc3)CC2)c(=O)n(C[C@H](N)c2ccccc2)c(=O)n1Cc1c(F)cccc1F` [Compound 3-7], more than 7.00.

Take `Cc1c(N2CCN(Cc3cccc(OC(F)(F)F)c3)CC2)c(=O)n(C[C@H](N)c2ccccc2)c(=O)n1Cc1c(F)cccc1F` [Compound 3-1]: in data set [1], the pIC50 was more than 7.00.

For the compound `CCOC(=O)CCNC(=O)c1cccc(CN2CCN(c3c(C)n(Cc4c(F)cccc4C(F)(F)F)c(=O)n(C[C@H](N)c4ccccc4)c3=O)CC2)c1` [Compound 10-2], in data set [1] (setting [4]), the pIC50 was more than 7.00.

For `N[C@@H](Cn1c(=O)c(N2CCN(Cc3cccc(-c4nnn[nH]4)c3)CC2)cn(Cc2c(F)cccc2C(F)(F)F)c1=O)c1ccccc1` [Compound 18, 3-((R)-2-amino-2-phenyl-ethyl)-1-(2-fluoro-6-trifluoromethyl-benzyl)-5-{4-[3-(1H-tetrazol-5-yl)-benzyl]-piperazin-1-yl}-1H-pyrimidine-2,4-dione], in data set [1] (setting [4]), the pIC50 was more than 7.00. On the same count and under the same terms, under `Cc1c(N2CCC(Cc3ccccc3)CC2)c(=O)n(C[C@H](N)c2ccccc2)c(=O)n1Cc1c(F)cccc1F` [Compound 1-26] stands more than 7.00.

The values above are taken from US9034850B2, “Gonadotropin releasing hormone receptor antagonist, preparation method thereof and pharmaceutical composition comprising the same” (SK Chemicals Co., Ltd., priority 2009, dated 2015).
